Values after ≈ are worked out from the molar mass of the structure shown. Like-named read-outs stand apart in the source and are kept apart here.
Assays:
[1] = test system: Acinetobacter anitratus IID 876; assay: MIC, in vitro antibacterial activity (standard strains); assay type: cell-based
P. aeruginosa IID 1210 = assay: as above; assay type: cell-based, Pseudomonas aeruginosa; conditions: 10^6 cells/ml, Gram -
E. coli ML 4707 = assay: as above; assay type: cell-based, Escherichia coli; conditions: Gram -, Table 1
S. aureus Smith = assay: as above; assay type: cell-based, Staphylococcus aureus; conditions: 10^6 cells/ml, Gram +
[2] = test system: Bacillus subtilis PCI 219; assay: as above; assay type: cell-based; conditions: 10^6 cells/ml, Gram +
[3] = test system: Bacteroides fragilis GM 7000; assay: as above; assay type: cell-based; conditions: 10^6 cells/ml, Gram -
[4] = test system: Citrobacter freundii IID 976; assay: as above; assay type: cell-based; conditions: 10^6 cells/ml, Gram -
Shigella sonnei IID 969 = assay: as above; assay type: cell-based; conditions: 10^6 cells/ml, Gram -
Method: Minimal inhibitory concentrations (MICs) were determined in accordance with the method recommended by Japan Society of Chemotherapy.

[5] = test system: Pseudomonas aeruginosa V-1; assay: as above; assay type: cell-based; conditions: 10^6 cells/ml, Gram -
P. mirabilis IID 994 = assay: as above; assay type: cell-based; conditions: 10^6 cells/ml, Gram -
[6] = test system: Yersinia enterocolitica IID 981; assay: as above; assay type: cell-based; conditions: 10^6 cells/ml, Gram -
[7] = test system: Morganella morganii IID 602; assay: as above; assay type: cell-based; conditions: 10^6 cells/ml, Gram -
C. ramosum = assay: as above; assay type: cell-based; conditions: 10^6 cells/ml, Gram +
S. pneumoniae IID 552 = assay: as above; assay type: cell-based; conditions: 10^6 cells/ml, Gram +
[8] = test system: Escherichia coli NIHJ JC-2; assay: as above; assay type: cell-based; conditions: 10^6 cells/ml, Gram -
F. varium KYA 8501 = assay: as above; assay type: cell-based; conditions: 10^6 cells/ml, Gram -
B. fragilis 25285 = assay: as above; assay type: cell-based, Bacteroides fragilis; conditions: 10^6 cells/ml, Gram -
E. faecalis IID 682 = assay: as above; assay type: cell-based
[9] = test system: Streptococcus pyogenes (S-8); assay: as above; assay type: cell-based
[10] = test system: Proteus vulgaris IFO 3167; assay: as above; assay type: cell-based; conditions: 10^6 cells/ml, Gram -
[11] = test system: Salmonella enteritidis IID 604; assay: as above; assay type: cell-based; conditions: 10^6 cells/ml, Gram -
[12] = test system: Clostridium difficile I-E; assay: as above; assay type: cell-based; conditions: Clostridioides difficile; 10^6 cells/ml; Gram +
B. fragilis 0558 = assay: as above; assay type: cell-based, Bacteroides fragilis; conditions: 10^6 cells/ml, Gram -
K. pneumoniae 1-220S = assay: as above; assay type: cell-based, Klebsiella pneumoniae; conditions: 10^6 cells/ml, Gram -
[13] = test system: Serratia marcescens IID 618; assay: as above; assay type: cell-based; conditions: 10^6 cells/ml, Gram -
[14] = test system: Alcaligenes faecalis 0114002; assay: as above; assay type: cell-based
[15] = test system: Klebsiella pneumoniae KY(GN)6445; assay: as above; assay type: cell-based; conditions: 10^6 cells/ml, Gram -
[16] = test system: Enterobacter cloacae IID 977; assay: as above; assay type: cell-based; conditions: 10^6 cells/ml, Gram -
P. maltophilia GIFU 2491 = assay: as above; assay type: cell-based; conditions: 10^6 cells/ml, Gram -
[17] = test system: Staphylococcus aureus 209 P; assay: as above; assay type: cell-based; conditions: 10^6 cells/ml, Gram +
E. coli ATCC 10536 = assay: as above; assay type: cell-based, Escherichia coli; conditions: 10^6 cells/ml, Gram -
S. epidermidis IID 866 = assay: as above; assay type: cell-based; conditions: 10^6 cells/ml, Gram +
S. pyogenes IID 692 = assay: as above; assay type: cell-based, Streptococcus pyogenes; conditions: 10^6 cells/ml, Gram +
P. aeruginosa IFO 12689 = assay: as above; assay type: cell-based, Pseudomonas aeruginosa; conditions: 10^6 cells/ml, Gram -
[18] = test system: S. aureus IID 670 (Terajima); assay: as above; assay type: cell-based, Staphylococcus aureus
Pst. micros UPI 5464-1 = assay: as above; assay type: cell-based; conditions: 10^6 cells/ml; Gram +
[19] = test system: Veillonella parvula KYA 10790; assay: as above; assay type: cell-based; conditions: 10^6 cells/ml; Gram -
[20] = test system: Propionibacterium acens 11828; assay: as above; assay type: cell-based; conditions: 10^6 cells/ml; Gram +
[21] = test system: Eubacterium lentum GAI 5242; assay: as above; assay type: cell-based; conditions: 10^6 cells/ml; Gram +
E. limosum KYA 8486 = assay: as above; assay type: cell-based; conditions: 10^6 cells/ml; Gram +
B. vulgatus KYA 29327 = assay: as above; assay type: cell-based; conditions: 10^6 cells/ml; Gram -
C. perfringens KYA 13123 = assay: microbe, parasite or virus in culture; assay type: cell-based; conditions: 10^6 cells/ml; Gram +
B. distasonis 8503 = assay: MIC, in vitro antibacterial activity (standard strains); assay type: cell-based; conditions: 10^6 cells/ml; Gram -
P. cepacia GIFU 518 = assay: as above; assay type: cell-based; conditions: 10^6 cells/ml; Gram -
[22] = test system: B. thetaiotaomicron (0661); assay: as above; assay type: cell-based; conditions: 10^6 cells/ml; Gram -
F. necrophorum S-45 = assay: as above; assay type: cell-based; conditions: 10^6 cells/ml; Gram -
[23] = test system: Fusobacterium mortiferum 4249; assay: as above; assay type: cell-based; conditions: 10^6 cells/ml; Gram -
[24] = test system: Peptostreptococcus anaerobius KYA 27337; assay: as above; assay type: cell-based; conditions: 10^6 cells/ml; Gram +
[25] = test system: Peptococcus magnus KY 017; assay: as above; assay type: cell-based; conditions: 10^6 cells/ml; Gram +

CCn1cc(C(=O)O)c(=O)c2cc(F)c(N3CCNCC3)cc21 [NFLX, norfloxacin, reference compound]
MIC ([1]; Acinetobacter calcoaceticus, IID876): 1.56 µg/mL (≈ 4.89 µM)
MIC (P. aeruginosa IID 1210; Pseudomonas aeruginosa, IID1210, read-out: MIC): 3.13 µg/mL (≈ 9.8 µM)
MIC (E. coli ML 4707; Escherichia coli, ML4707, 10^6 cells/ml, read-out: MIC): 0.05 µg/mL (≈ 0.157 µM)
MIC (S. aureus Smith; Staphylococcus aureus, read-out: MIC): 0.78 µg/mL (≈ 2.44 µM)
MIC ([2]; Bacillus subtilis, PCI219, read-out: MIC): 0.1 µg/mL (≈ 0.313 µM)
MIC ([3]; Bacteroides fragilis, GM7000, read-out: MIC): 25 µg/mL (≈ 78.3 µM)
MIC ([4]; Citrobacter freundii, IID976, read-out: MIC): 0.05 µg/mL (≈ 0.157 µM)
MIC (Shigella sonnei IID 969; Shigella sonnei, IID969, read-out: MIC): 0.05 µg/mL (≈ 0.157 µM)
MIC ([5]; Pseudomonas aeruginosa, V1, read-out: MIC): 0.39 µg/mL (≈ 1.22 µM)
MIC (P. mirabilis IID 994; Proteus mirabilis, IID994, read-out: MIC): 0.05 µg/mL (≈ 0.157 µM)
MIC ([6]; Yersinia enterocolitica, IID981, read-out: MIC): 0.1 µg/mL (≈ 0.313 µM)
MIC ([7]; Morganella morganii, IID602, read-out: MIC): 0.05 µg/mL (≈ 0.157 µM)
MIC (C. ramosum; Thomasclavelia ramosa, read-out: MIC): 50 µg/mL (≈ 157 µM)
MIC (S. pneumoniae IID 552; Streptococcus pneumoniae, IID552, read-out: MIC): 3.13 µg/mL (≈ 9.8 µM)
MIC ([8]; Escherichia coli, NIHJJC2, read-out: MIC): 0.0563 µg/mL (≈ 0.176 µM)
MIC (F. varium KYA 8501; Fusobacterium varium, KYA8501, read-out: MIC): 100 µg/mL (≈ 313 µM)
MIC (B. fragilis 25285; Bacteroides fragilis, 25285, read-out: MIC): 25 µg/mL (≈ 78.3 µM)
MIC (E. faecalis IID 682; Enterococcus faecalis, IID682): 1.56 µg/mL (≈ 4.89 µM)
MIC ([9]; Streptococcus pyogenes): 1.56 µg/mL (≈ 4.89 µM)
MIC ([10]; Proteus vulgaris, IFO3167, read-out: MIC): 0.05 µg/mL (≈ 0.157 µM)
MIC ([11]; Salmonella enterica, read-out: MIC): 0.05 µg/mL (≈ 0.157 µM)
MIC [12]: 50 µg/mL
MIC (B. fragilis 0558; Bacteroides fragilis, 0558, read-out: MIC): 25 µg/mL (≈ 78.3 µM)
MIC (K. pneumoniae 1-220S; Klebsiella pneumoniae, 1220S, read-out: MIC): 0.1 µg/mL (≈ 0.313 µM)
MIC ([13]; Serratia marcescens, IID618, read-out: MIC): 0.05 µg/mL (≈ 0.157 µM)
MIC ([14]; Alcaligenes faecalis, 0114002): 1.56 µg/mL (≈ 4.89 µM)
MIC ([15]; Klebsiella pneumoniae, read-out: MIC): 0.05 µg/mL (≈ 0.157 µM)
MIC ([16]; Enterobacter cloacae, IID977, read-out: MIC): 0.1 µg/mL (≈ 0.313 µM)
MIC (P. maltophilia GIFU 2491; Stenotrophomonas maltophilia, GIFU2491, read-out: MIC): 6.25 µg/mL (≈ 19.6 µM)
MIC ([17]; Staphylococcus aureus, 209P, read-out: MIC): 0.78 µg/mL (≈ 2.44 µM)
MIC (E. coli ATCC 10536; Escherichia coli, ATCC10536, read-out: MIC): 0.05 µg/mL (≈ 0.157 µM)
MIC (S. epidermidis IID 866; Staphylococcus epidermidis, IID866, read-out: MIC): 0.78 µg/mL (≈ 2.44 µM)
MIC (S. pyogenes IID 692; Streptococcus pyogenes, IID692, read-out: MIC): 3.13 µg/mL (≈ 9.8 µM)
MIC (P. aeruginosa IFO 12689; Pseudomonas aeruginosa, IFO12689, read-out: MIC): 0.78 µg/mL (≈ 2.44 µM)
MIC ([18]; Staphylococcus aureus, IID670): 1.56 µg/mL (≈ 4.89 µM)

7-(3-Aminomethyl-4-methyl-1-pyrrolidinyl)-1-cyclopropyl-6,8-difluoro-1,4-dihydro-4-oxo-3-quinolinecarboxylic acid [Example 2]
MIC ([1]; 10^6 cells/ml, Gram -): 0.05 µg/mL
MIC (Pst. micros UPI 5464-1): 0.39 µg/mL
MIC (P. aeruginosa IID 1210): 0.78 µg/mL
MIC (E. coli ML 4707; 10^6 cells/ml): 0.025 µg/mL
MIC (S. aureus Smith): 0.025 µg/mL
MIC [2]: 0.0125 µg/mL
MIC [19]: 0.39 µg/mL
MIC [20]: 0.39 µg/mL
MIC [3]: 0.78 µg/mL
MIC [21]: 0.78 µg/mL
MIC (E. limosum KYA 8486): 1.56 µg/mL
MIC (B. vulgatus KYA 29327): 0.78 µg/mL
MIC [4]: 0.05 µg/mL
MIC (Shigella sonnei IID 969): 0.025 µg/mL
MIC (C. perfringens KYA 13123): 0.20 µg/mL
MIC (B. distasonis 8503): 3.13 µg/mL
MIC (P. cepacia GIFU 518): 0.39 µg/mL
MIC [5]: 0.10 µg/mL
MIC (P. mirabilis IID 994): 0.05 µg/mL
MIC [6]: 0.05 µg/mL
MIC [7]: 0.10 µg/mL
MIC (C. ramosum): 0.78 µg/mL
MIC (S. pneumoniae IID 552): 0.05 µg/mL
MIC [22]: 0.78 µg/mL
MIC [8]: 0.025 µg/mL
MIC (F. varium KYA 8501): 0.78 µg/mL
MIC (B. fragilis 25285): 0.39 µg/mL
MIC (F. necrophorum S-45): 0.39 µg/mL
MIC [23]: 0.39 µg/mL
MIC (E. faecalis IID 682; 10^6 cells/ml, Gram +): 0.10 µg/mL
MIC [24]: 0.10 µg/mL
MIC ([9]; 10^6 cells/ml, Gram +): 0.05 µg/mL
MIC [10]: 0.05 µg/mL
MIC [11]: 0.05 µg/mL
MIC [25]: 0.20 µg/mL
MIC (B. fragilis 0558): 0.39 µg/mL
MIC (K. pneumoniae 1-220S): 0.05 µg/mL
MIC [13]: 0.10 µg/mL
MIC ([14]; 10^6 cells/ml, Gram -): 0.20 µg/mL
MIC [15]: 0.05 µg/mL
MIC [16]: 0.05 µg/mL
MIC (P. maltophilia GIFU 2491): 0.20 µg/mL
MIC [17]: 0.025 µg/mL
MIC (E. coli ATCC 10536): 0.025 µg/mL
MIC (S. epidermidis IID 866): 0.025 µg/mL
MIC (S. pyogenes IID 692): 0.05 µg/mL
MIC (P. aeruginosa IFO 12689): 0.78 µg/mL
MIC ([18]; 10^6 cells/ml, Gram +): 0.025 µg/mL
